{"source": "patent US20010044445A1", "about": "“AZOLE INHIBITORS OF CYTOKINE PRODUCTION” (priority 1999, published 2001)", "key": {"[1]": {"test_system": "Human peripheral blood mononuclear cells", "assay": "Human Concanavalin-A Proliferation Assay (Con HU Assay)", "type": "cell-based", "conditions": "Homo sapiens, PBMC, concanavalin-A stimulated human PBMC; for inhibition at 100 µM / inhibition at 10 µM / inhibition at 1 µM: 72 h, 3 days, read-out: % Inhibition of proliferation (at concentrations of 1,10, or 100 μm); for inhibition at 100 µM: concentration 100 μm (in parentheses in the cell); for IC50: tritiated thymidine; for inhibition at 10 µM: concentration 10 μm (in parentheses in the cell); for inhibition at 1 µM: concentration 1 μm (in parentheses in the cell)", "how_it_was_run": "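Proliferation read as tritiated thymidine uptake (0.5 μCi/well, 6 h pulse on day 3) in human PBMC cultured 3 days with 2.5 μg/ml (final) concanavalin-A. Cells, 50,000 per well in supplemented RPMI 1640 with 10% FBS, received compound 15 min before mitogen.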"}}}
{"smiles": "O=C(Nc1ccc(-n2nc(C(F)(F)F)cc2C(F)(F)F)cc1)c1ccccc1F", "note": "[Example 114, N-[4-[3,5-bis(trifluoromethyl)-1H-pyrazol-1-yl]phenyl]-2-fluorobenzamide]", "values": [{"measurement": "melting point", "value": "188 to 190", "unit": "°C"}, {"measurement": "inhibition at 100 µM", "setting": "[1]", "value": 98, "unit": "%"}, {"measurement": "IC50", "setting": "[1]", "value": 84, "unit": "nM"}]}
{"smiles": "Cc1nnsc1C(=O)Nc1ccc(-n2nc(C(F)(F)F)cc2C)cc1", "note": "[Example 282, 4-methyl-N-[4-[5-methyl-3-(trifluoromethyl)-1H-pyrazol-1-yl]phenyl]-1,2,3-thiadiazole-5-carboxamide]", "values": [{"measurement": "melting point", "value": "51 to 53", "unit": "°C"}, {"measurement": "inhibition at 100 µM", "setting": "[1]", "value": 100, "unit": "%"}, {"measurement": "IC50", "setting": "[1]", "value": 248, "unit": "nM"}]}
{"smiles": "O=C(Nc1ccc(-n2nc(C(F)(F)F)cc2C(F)(F)F)cc1)c1cc(F)c(F)cc1F", "note": "[Example 228, N-[4-[3,5-bis(trifluoromethyl)-1H-pyrazol-1-yl]phenyl]-2,4,5-trifluorobenzamide]", "values": [{"measurement": "melting point", "value": "109 to 111", "unit": "°C"}, {"measurement": "inhibition at 10 µM", "setting": "[1]", "value": 99, "unit": "%"}, {"measurement": "IC50", "setting": "[1]", "value": 147, "unit": "nM"}]}
{"smiles": "O=C(Nc1ccc(-n2nc(C(F)(F)F)cc2C(F)(F)F)cc1)c1cc(Cl)nc(Cl)c1", "note": "[Example 269, N-[4-[3,5-bis(trifluoromethyl)-1H-pyrazol-1-yl]phenyl]-2,6-dichloro-4-pyridinecarboxamide]", "values": [{"measurement": "melting point", "value": "215 to 216", "unit": "°C"}, {"measurement": "inhibition at 10 µM", "setting": "[1]", "value": 99, "unit": "%"}, {"measurement": "IC50", "setting": "[1]", "value": 392, "unit": "nM"}]}
{"smiles": "O=C(Nc1ccc(-n2nc(C(F)(F)F)cc2C(F)(F)F)cc1)c1ccc([N+](=O)[O-])o1", "note": "[Example 247, N-[4-[3,5-bis(trifluoromethyl)-1H-pyrazol-1-yl]phenyl]-5-nitro-2-furancarboxamide]", "values": [{"measurement": "melting point", "value": "198 to 199", "unit": "°C"}, {"measurement": "inhibition at 10 µM", "setting": "[1]", "value": 97, "unit": "%"}, {"measurement": "IC50", "setting": "[1]", "value": 375, "unit": "nM"}]}
{"smiles": "O=C(Nc1ccc(-n2nc(C(F)(F)F)cc2C(F)(F)F)cc1)c1ccc(F)cc1F", "note": "[Example 135, N-[4-[3,5-bis(trifluoromethyl)-1H-pyrazol-1-yl]phenyl]-2,4-difluorobenzamide]", "values": [{"measurement": "melting point", "value": "126 to 128", "unit": "°C"}, {"measurement": "inhibition at 100 µM", "setting": "[1]", "value": 100, "unit": "%"}, {"measurement": "IC50", "setting": "[1]", "value": 207, "unit": "nM"}]}
{"smiles": "O=C(Nc1ccc(-n2nc(C(F)(F)F)cc2C(F)(F)F)cc1)c1cccnc1F", "note": "[Example 164, N-[4-[3,5-bis(trifluoromethyl)-1H-pyrazol-1-yl]phenyl]-2-fluoro-3-pyridinecarboxamide]", "values": [{"measurement": "melting point", "value": "110 to 112", "unit": "°C"}, {"measurement": "inhibition at 10 µM", "setting": "[1]", "value": 99, "unit": "%"}, {"measurement": "IC50", "setting": "[1]", "value": 39, "unit": "nM"}]}
{"smiles": "N#CCC(=O)Nc1ccc(-n2nc(C(F)(F)F)cc2C(F)(F)F)cc1", "note": "[Example 52, N-[4-[3,5-bis(trifluoromethyl)-1H-pyrazol-1-yl]phenyl]-2-cyanoacetamide]", "values": [{"measurement": "melting point", "value": "140 to 143", "unit": "°C"}, {"measurement": "inhibition at 1 µM", "setting": "[1]", "value": 26, "unit": "%"}]}
{"smiles": "O=C(Nc1ccc(-n2nc(C(F)(F)F)cc2C(F)(F)F)cc1F)c1ccc(F)cc1F", "note": "[Example 272, N-[4-[3,5-bis(trifluoromethyl)-1H-pyrazol-1-yl]-2-fluorophenyl]-2,4-difluorobenzamide]", "values": [{"measurement": "melting point", "value": "66 to 67", "unit": "°C"}, {"measurement": "inhibition at 1 µM", "setting": "[1]", "value": 10, "unit": "%"}]}
{"smiles": "COc1cncc(Cl)c1C(=O)Nc1ccc(-n2nc(C(F)(F)F)cc2C(F)(F)F)cc1", "note": "[Example 291, N-(4-(3,5-bis(trifluoromethyl)-1H-pyrazol-1-yl)phenyl)-3-chloro-5-methoxyisonicotinamide]", "values": [{"measurement": "melting point", "value": "187 to 188", "unit": "°C"}, {"measurement": "IC50", "setting": "[1]", "value": 411, "unit": "nM"}]}
{"smiles": "O=C(Nc1ccc(-n2nc(C(F)(F)F)cc2C(F)(F)F)cc1)c1ccno1", "note": "[Example 240, N-[4-[3,5-bis(trifluoromethyl)-1H-pyrazol-1-yl]phenyl]-5-isoxazolecarboxamide]", "values": [{"measurement": "melting point", "value": "202 to 204", "unit": "°C"}, {"measurement": "inhibition at 10 µM", "setting": "[1]", "value": 84, "unit": "%"}, {"measurement": "IC50", "setting": "[1]", "value": 507, "unit": "nM"}]}
{"smiles": "FC(F)(F)c1cc(C(F)(F)F)n(-c2ccc(NCc3ccccc3Cl)cc2)n1", "note": "[Example 82, N-[4-[3,5-bis(trifluoromethyl)-1H-pyrazol-1-yl]phenyl]-2-chlorobenzenemethanamine]", "values": [{"measurement": "melting point", "value": 240, "unit": "°C"}, {"measurement": "inhibition at 100 µM", "setting": "[1]", "value": 100, "unit": "%"}, {"measurement": "IC50", "setting": "[1]", "value": 468, "unit": "nM"}]}
{"smiles": "O=C(/C=C/c1cccs1)Nc1ccc(-n2nc(C(F)(F)F)cc2C(F)(F)F)cc1", "note": "[Example 171, (E)-N-[4-[3,5-bis(trifluoromethyl)-1H-pyrazol-1-yl]phenyl]-3-(2-thienyl)-2-propenamide]", "values": [{"measurement": "melting point", "value": "216 to 218", "unit": "°C"}, {"measurement": "inhibition at 1 µM", "setting": "[1]", "value": 12, "unit": "%"}]}
{"smiles": "Cc1ccsc1C(=O)Nc1ccc(-n2nc(C(F)(F)F)cc2C(F)(F)F)cc1", "note": "[Example 162, N-[4-[3,5-bis(trifluoromethyl)-1H-pyrazol-1-yl]phenyl]-3-methyl-2-thiophenecarboxamide]", "values": [{"measurement": "melting point", "value": "185 to 188", "unit": "°C"}, {"measurement": "inhibition at 10 µM", "setting": "[1]", "value": 100, "unit": "%"}, {"measurement": "IC50", "setting": "[1]", "value": 44, "unit": "nM"}]}
{"smiles": "O=C(Cc1ccc(Cl)cc1)Nc1ccc(-n2nc(C(F)(F)F)cc2C(F)(F)F)cc1", "note": "[Example 169, N-[4-[3,5-bis(trifluoromethyl)-1H-pyrazol-1-yl]phenyl]-4-chlorobenzeneacetamide]", "values": [{"measurement": "melting point", "value": "122 to 124", "unit": "°C"}, {"measurement": "inhibition at 1 µM", "setting": "[1]", "value": 2, "unit": "%"}]}
{"smiles": "O=C(Nc1ccc(-n2nc(C(F)(F)F)cc2C(F)(F)F)cc1)C1CCNCC1", "note": "[Example 125, N-[4-[3,5-bis(trifluoromethyl)-1H-pyrazol-1-yl]phenyl]-4-piperidinecarboxamide]", "values": [{"measurement": "melting point", "value": "156 to 159", "unit": "°C"}, {"measurement": "inhibition at 1 µM", "setting": "[1]", "value": 6, "unit": "%"}]}
{"smiles": "COc1cc(-n2nc(C(F)(F)F)cc2C(F)(F)F)ccc1NC(=O)c1snnc1C", "note": "[Example 280, N-[4-[3,5-bis(trifluoromethyl)-1H-pyrazol-1-yl]-2-methoxyphenyl]-4-methyl-1,2,3-thiadiazole-5-carboxamide]", "values": [{"measurement": "melting point", "value": "119 to 121", "unit": "°C"}, {"measurement": "inhibition at 10 µM", "setting": "[1]", "value": 16, "unit": "%"}]}
{"smiles": "O=C(Nc1ccc(-n2nc(C(F)(F)F)cc2C(F)(F)F)cc1)c1ccc(Cl)nc1", "note": "[Example 249, N-[4-[3,5-bis(trifluoromethyl)-1H-pyrazol-1-yl]phenyl]-6-chloro-3-pyridinecarboxamide]", "values": [{"measurement": "melting point", "value": "192 to 194", "unit": "°C"}, {"measurement": "inhibition at 10 µM", "setting": "[1]", "value": 100, "unit": "%"}, {"measurement": "IC50", "setting": "[1]", "value": 182, "unit": "nM"}]}
{"smiles": "O=C(Nc1ccc(-n2nc(C(F)(F)F)cc2C(F)(F)F)cc1)c1ccc(I)cc1", "note": "[Example 69, N-[4-[3,5-bis(trifluoromethyl)-1H-pyrazol-1-yl]phenyl]-4-iodobenzamide]", "values": [{"measurement": "melting point", "value": "196 to 198", "unit": "°C"}, {"measurement": "inhibition at 100 µM", "setting": "[1]", "value": 98, "unit": "%"}, {"measurement": "IC50", "setting": "[1]", "value": 506, "unit": "nM"}]}
{"smiles": "O=C(Nc1ccc(-n2nc(C(F)(F)F)cc2C(F)(F)F)cc1)c1ccc(F)cc1Cl", "note": "[Example 206, N-[4-[3,5-bis(trifluoromethyl)-1H-pyrazol-1-yl]phenyl]-2-chloro-4-fluorobenzamide]", "values": [{"measurement": "melting point", "value": "155 to 157", "unit": "°C"}, {"measurement": "inhibition at 10 µM", "setting": "[1]", "value": 100, "unit": "%"}, {"measurement": "IC50", "setting": "[1]", "value": 61, "unit": "nM"}]}
{"smiles": "O=C(Nc1ccc(-n2nc(C(F)(F)F)cc2C(F)(F)F)cc1)C1CCCO1", "note": "(stereo not drawn) [Example 241, N-[4-[3,5-bis(trifluoromethyl)-1H-pyrazol-1-yl]phenyl]tetrahydro-2-furancarboxamide]", "values": [{"measurement": "melting point", "value": "113 to 116", "unit": "°C"}, {"measurement": "inhibition at 1 µM", "setting": "[1]", "value": 10, "unit": "%"}]}
{"smiles": "Cc1ccccc1C(=O)Nc1ccc(-n2nc(C(F)(F)F)cc2C(F)(F)F)cc1", "note": "[Example 96, N-[4-[3,5-bis(trifluoromethyl)-1H-pyrazol-1-yl]phenyl]-2-methylbenzamide]", "values": [{"measurement": "melting point", "value": "165 to 167", "unit": "°C"}, {"measurement": "inhibition at 100 µM", "setting": "[1]", "value": 99, "unit": "%"}, {"measurement": "IC50", "setting": "[1]", "value": 338, "unit": "nM"}]}
{"smiles": "N#Cc1cccc(C(=O)Nc2cccc(-n3nc(C(F)(F)F)cc3C(F)(F)F)c2)c1", "note": "[Example 204, N-[3-[3,5-bis(trifluoromethyl)-1H-pyrazol-1-yl]phenyl]-3-cyanobenzamide]", "values": [{"measurement": "melting point", "value": "160 to 161", "unit": "°C"}, {"measurement": "inhibition at 1 µM", "setting": "[1]", "value": 12, "unit": "%"}]}
